Each structure is given as a SMILES string. A value given as a limit tells only on which side of the number the result lay.

In the test the target is T1, hMC2 receptor (crude hMC2R membranes from CRE-bla-CHO-K1 cells stably expressing hMC2 receptor and hMRAP accessory protein) (Homo sapiens, UniProt Q01718).
T1 construct: crude membrane fractions
T1 sequence (Q01718 whole entry): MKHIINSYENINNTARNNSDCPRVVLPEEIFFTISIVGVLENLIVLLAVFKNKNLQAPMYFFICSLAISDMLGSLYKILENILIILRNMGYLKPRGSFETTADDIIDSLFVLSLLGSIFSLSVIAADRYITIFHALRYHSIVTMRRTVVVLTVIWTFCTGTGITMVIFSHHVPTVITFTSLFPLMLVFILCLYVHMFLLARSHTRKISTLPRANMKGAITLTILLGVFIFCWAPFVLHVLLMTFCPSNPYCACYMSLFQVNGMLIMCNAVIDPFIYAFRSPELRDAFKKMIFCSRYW
T1 sequence (Q8TCY5 whole entry partner): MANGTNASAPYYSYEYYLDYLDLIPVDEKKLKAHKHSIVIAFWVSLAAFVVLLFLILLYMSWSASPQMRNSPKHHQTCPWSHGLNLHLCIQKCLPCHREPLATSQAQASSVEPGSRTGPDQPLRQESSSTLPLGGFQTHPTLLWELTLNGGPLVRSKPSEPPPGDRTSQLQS
The experiment in a line: hMC2 membrane binding assay ([125I]ACTH (1-39) Tyr23, SPA). Particulars: displacement of 0.2 nM [125I]ACTH (1-39) Tyr23 from hMC2R membranes, 1.5 hours at room temperature; read-out: MC2R binding potency. Summed up: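 Ki values come from non-linear regression of SPA scintillation counts, with compounds displacing [125I]ACTH(1-39) Tyr23. Membranes come from CRE-bla-CHO-K1 cells stably expressing hMC2 receptor together with hMRAP. They are preincubated with WGA-coated PVT SPA beads in 50 mM HEPES pH 7.4 with 0.20% BSA, Mg2+, Ca2+ and protease inhibitors.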
As for `CCOc1ncccc1-c1ccc(C2(C(=O)N[C@H]3CCN(C)C3)CCN(c3ccc(Cl)cc3C#N)CC2)cn1` [Compound 1-34, 1-(4-chloro-2-cyanophenyl)-4-{2′-ethoxy-[2,3′-bipyridin]-5-yl}-N-[(3S)-1-methylpyrrolidin-3-yl]piperidine-4-carboxamide], the Ki is below 10 nM.
`CN(C)CCNC(=O)C1(c2cnc(-c3cccn3C)c(F)c2)CCN(c2ccc(C(F)(F)F)cc2F)CC1` [Compound 1-304, N-[2-(dimethylamino)ethyl]-1-[2-fluoro-4-(trifluoromethyl)phenyl]-4-[5-fluoro-6-(1-methyl-1H-pyrrol-2-yl)pyridin-3-yl]piperidine-4-carboxamide]: the Ki was below 10 nM.
Consider `CCOc1ncccc1-c1ccc(C2(NC(=O)N3CC[C@H](NC)C3)CCN(c3ccc(C(F)(F)F)cc3C#N)CC2)cn1` [Compound 2-24, (3S)—N-{1-[2-cyano-4-(trifluoromethyl)phenyl]-4-{2′-ethoxy-[2,3′-bipyridin]-5-yl}piperidin-4-yl}-3-(methylamino)pyrrolidine-1-carboxamide], for which the Ki was below 10 nM.
Next, `COc1ccc(F)cc1-c1ccc(C2(C(=O)N[C@H]3CCN(C)C3)CCN(c3ccc(C(F)(F)F)cc3C#N)CC2)cn1` [Compound 1-102, 1-[2-cyano-4-(trifluoromethyl)phenyl]-4-[6-(5-fluoro-2-methoxyphenyl)pyridin-3-yl]-N-[(3S)-1-methylpyrrolidin-3-yl]piperidine-4-carboxamide]: below 10 nM; `CCOc1ncccc1-c1ccc(C2(C(=O)N[C@@H]3CCN(C)C3)CCN(c3ccc(C(F)(F)F)cc3OC)CC2)cc1` [Compound 1-159, 4-[4-(2-ethoxypyridin-3-yl)phenyl]-1-[2-methoxy-4-(trifluoromethyl)phenyl]-N-[(3R)-1-methylpyrrolidin-3-yl]piperidine-4-carboxamide]: 10 to 100 nM.
Under `CCOc1ncccc1-c1ccc(C2(C(=O)N[C@H]3CCN(C)C3)CCN(c3ccc(C(F)(F)F)cn3)CC2)cn1` [Compound 1-35, 4-{2′-ethoxy-[2,3′-bipyridin]-5-yl}-N-[(3S)-1-methylpyrrolidin-3-yl]-1-[5-(trifluoromethyl)pyridin-2-yl]piperidine-4-carboxamide] stands below 10 nM.
Under `CN1CC(F)(F)C[C@H]1CNC(=O)C1(c2ccc(-c3cccn3C)nc2)CCN(c2ccc(C(F)(F)F)cc2C#N)CC1` [Compound 1-279, 1-[2-cyano-4-(trifluoromethyl)phenyl]-N-{[(2S)-4,4-difluoro-1-methylpyrrolidin-2-yl]methyl}-4-[6-(1-methyl-1H-pyrrol-2-yl)pyridin-3-yl]piperidine-4-carboxamide] stands 100 to 1000 nM.
Turning to `COc1ccccc1-c1ncc(C2(C(=O)N[C@H]3CCN(C)C3)CCN(c3ccc(C(F)(F)F)nc3C#N)CC2)cc1F` [Compound 1-128, 1-[2-cyano-6-(trifluoromethyl)pyridin-3-yl]-4-[5-fluoro-6-(2-methoxyphenyl)pyridin-3-yl]-N-[(3S)-1-methylpyrrolidin-3-yl]piperidine-4-carboxamide], the Ki was below 10 nM.
Next, `C[C@H](CN(C)C)NC(=O)C1(c2ccc(-c3cccn3C)nc2)CCN(c2ccc(C(F)(F)F)cc2C#N)CC1` [Compound 1-260, 1-[2-cyano-4-(trifluoromethyl)phenyl]-N-[(2R)-1-(dimethylamino)propan-2-yl]-4-[6-(1-methyl-1H-pyrrol-2-yl)pyridin-3-yl]piperidine-4-carboxamide]: below 10 nM; `CN1CC(F)(F)C[C@@H]1CNC(=O)C1(c2ccc(-c3cccn3C)nc2)CCN(c2ccc(C(F)(F)F)cc2C#N)CC1` [Compound 1-280, 1-[2-cyano-4-(trifluoromethyl)phenyl]-N-{[(2R)-4,4-difluoro-1-methylpyrrolidin-2-yl]methyl}-4-[6-(1-methyl-1H-pyrrol-2-yl)pyridin-3-yl]piperidine-4-carboxamide]: 100 to 1000 nM.
Under `COc1ccsc1-c1ccc(C2(C(=O)N[C@@H]3CCN(C)C3)CCN(c3ccc(C(F)(F)F)cc3C#N)CC2)cn1` [Compound 1-80, 1-[2-cyano-4-(trifluoromethyl)phenyl]-4-[6-(3-methoxythiophen-2-yl)pyridin-3-yl]-N-[(3R)-1-methylpyrrolidin-3-yl]piperidine-4-carboxamide] stands below 10 nM.
Under `CCOc1ncccc1-c1ccc(C2(C(=O)NCCNC)CCN(c3ccc(C(F)(F)F)cc3Cl)CC2)cn1` [Compound 1-225, 1-[2-chloro-4-(trifluoromethyl)phenyl]-4-{2′-ethoxy-[2,3′-bipyridin]-5-yl}-N-[2-(methylamino)ethyl]piperidine-4-carboxamide] stands below 10 nM; under `CNC[C@H](C)NC(=O)C1(c2cnc(-c3cccn3C)c(F)c2)CCN(c2ccc(C(F)(F)F)cc2C#N)CC1` [Compound 1-326, 1-[2-cyano-4-(trifluoromethyl)phenyl]-4-[5-fluoro-6-(1-methyl-1H-pyrrol-2-yl)pyridin-3-yl]-N-[(2S)-1-(methylamino)propan-2-yl]piperidine-4-carboxamide], below 10 nM.
With `COc1ccccc1-c1ccc(C2(C(=O)NCCN(C)C)CCN(c3ccc(C(F)(F)F)cc3F)CC2)cn1` [Compound 1-254, N-[2-(dimethylamino)ethyl]-1-[2-fluoro-4-(trifluoromethyl)phenyl]-4-[6-(2-methoxyphenyl)pyridin-3-yl]piperidine-4-carboxamide], the Ki is below 10 nM.
Next, `Cn1cccc1-c1ccc(C2(C(=O)N[C@H]3CN4CCC3CC4)CCN(c3ccc(C(F)(F)F)cc3C#N)CC2)cn1` [Compound 1-188, N-[(3R)-1-azabicyclo[2.2.2]octan-3-yl]-1-[2-cyano-4-(trifluoromethyl)phenyl]-4-[6-(1-methyl-1H-pyrrol-2-yl)pyridin-3-yl]piperidine-4-carboxamide]: 10 to 100 nM; `CCOc1ccccc1-c1ccc(C2(C(=O)NCCNC)CCN(c3ccc(C(F)(F)F)cc3Cl)CC2)cn1` [Compound 1-230, 1-[2-chloro-4-(trifluoromethyl)phenyl]-4-[6-(2-ethoxyphenyl)pyridin-3-yl]-N-[2-(methylamino)ethyl]piperidine-4-carboxamide]: below 10 nM.
Under `COc1ccccc1-c1ncc(C2(C(=O)NCCN(C)C)CCN(c3ccc(C(F)(F)F)cc3Cl)CC2)cc1F` [Compound 1-286, 1-[2-chloro-4-(trifluoromethyl)phenyl]-N-[2-(dimethylamino)ethyl]-4-[5-fluoro-6-(2-methoxyphenyl)pyridin-3-yl]piperidine-4-carboxamide] stands below 10 nM; under `CCOc1ccccc1-c1ccc(C2(C(=O)N[C@H]3CCN(C)C3)CCN(c3ccc(F)cc3C#N)CC2)cn1` [Compound 1-96, 1-(2-cyano-4-fluorophenyl)-4-[6-(2-ethoxyphenyl)pyridin-3-yl]-N-[(3S)-1-methylpyrrolidin-3-yl]piperidine-4-carboxamide], below 10 nM; under `CCOc1ncccc1-c1ccc(C2(C(=O)N[C@H]3CCN(C)C3)CCN(c3ccc(C(F)(F)F)cc3C#N)CC2)cn1` [Compound 1-11, 1-[2-cyano-4-(trifluoromethyl)phenyl]-4-{2′-ethoxy-[2,3′-bipyridin]-5-yl}-N-[(3S)-1-methylpyrrolidin-3-yl]piperidine-4-carboxamide], below 10 nM.
Next, `CN1CC[C@](C)(NC(=O)C2(c3ccc(-c4cccn4C)nc3)CCN(c3ccc(C(F)(F)F)cc3C#N)CC2)C1` [Compound 1-253, 1-[2-cyano-4-(trifluoromethyl)phenyl]-N-[(3S)-1,3-dimethylpyrrolidin-3-yl]-4-[6-(1-methyl-1H-pyrrol-2-yl)pyridin-3-yl]piperidine-4-carboxamide]: below 10 nM; `CN1CC[C@@H](NC(=O)C2(c3ccc(-c4cccc5cnn(C)c45)nc3)CCN(c3ccc(C(F)(F)F)cc3C#N)CC2)C1` [Compound 1-73, 1-[2-cyano-4-(trifluoromethyl)phenyl]-4-[6-(1-methyl-1H-indazol-7-yl)pyridin-3-yl]-N-[(3R)-1-methylpyrrolidin-3-yl]piperidine-4-carboxamide]: below 10 nM.
In the case of `CCOc1ncccc1-c1ncc(C2(C(=O)N[C@H]3CCN(C)C3)CCN(c3ccc(C(F)(F)F)cc3F)CC2)cc1F` [Compound 1-201, (S)-4-(2′-ethoxy-3-fluoro-[2,3′-bipyridin]-5-yl)-1-(2-fluoro-4-(trifluoromethyl)phenyl)-N-(1-methylpyrrolidin-3-yl)piperidine-4-carboxamide], the Ki is below 10 nM.
Under `CCOc1ccccc1-c1ncc(C2(C(=O)N[C@H]3CCN(C)C3)CCN(c3ccc(C(F)(F)F)cc3F)CC2)cc1F` [Compound 1-200, 4-[6-(2-ethoxyphenyl)-5-fluoropyridin-3-yl]-1-[2-fluoro-4-(trifluoromethyl)phenyl]-N-[(3S)-1-methylpyrrolidin-3-yl]piperidine-4-carboxamide] stands below 10 nM; under `CN1CC[C@H](NC(=O)C2(c3cnc(-c4cccn4C)c(F)c3)CCN(c3ccc(C(F)(F)F)cc3C#N)CC2)C1` [Compound 1-161, 1-[2-cyano-4-(trifluoromethyl)phenyl]-4-[5-fluoro-6-(1-methyl-1H-pyrrol-2-yl)pyridin-3-yl]-N-[(3S)-1-methylpyrrolidin-3-yl]piperidine-4-carboxamide], below 10 nM.
Under `CN1CC[C@@H](NC(=O)C2(c3ccc(-c4cccn4C)nc3)CCN(c3ccc(C(F)(F)F)cc3C#N)CC2)C1` [Compound 1-88, 1-[2-cyano-4-(trifluoromethyl)phenyl]-4-[6-(1-methyl-1H-pyrrol-2-yl)pyridin-3-yl]-N-[(3R)-1-methylpyrrolidin-3-yl]piperidine-4-carboxamide] stands below 10 nM.

For the origin of these results see US12492181B2, “Gem-disubstituted piperidine melanocortin subtype-2 receptor (MC2R) antagonists and uses thereof” (Crinetics Pharmaceuticals, Inc., priority 2019, dated 2025).
